According to patent publication US8937063B2 (Trustees of Tufts College, priority 2010, dated 2015):

Tests used:
[1] = Single oral dose pharmacokinetic comparison niacin, ARI-001, 2230C in wild type mice; assay type: in vivo, C57BL/6 mice; details: single bolus oral gavage, mouse plasma; for AUC / Cmax / Tmax / half-life: C57BL/6; for half-life: read-out: half-life (t1/2) (converted)
From the text: Compound 2230C has the structure

[2] = test system: high fat+fructose (HF/HS) diet hamsters; assay: 18-day oral dosing lipid study in HF/HS hamsters; assay type: in vivo, male Golden Syrian hamsters; details: niacin 1200 mg/kg oral once daily 18 days, mean ± SD
Procedure: We examined the effects of diet modulation on the lipid profile of male Syrian Golden hamsters. Hamsters were ordered from Charles River Labs (Wilmington, Mass.), and requested to be 111-120 g in weight (correspondingly 56-61 days old). Hamsters were kept in cages of 4-5 per cage, and maintained on a standard light cycle of 12 hours on/12 hours off. All diets were obtained from Dyets, Inc. (Bethlehem, Pa.). “Normal Diet” was a standard rodent chow, catalog #5001, produced into pellets. Water and this standard chow diet were available to this group of hamsters ad libitum. Food was added to cages as needed, but no less frequently than twice per week. “High Fat Diet” was the same standard rodent chow supplemented with the following: 11.5% corn oil, 11.5% coconut oil, 0.5% cholesterol, and 0.25% deoxycholate. This is also available directly from Dyets, Inc., as catalog #611201. Both diets were ordered in 10 kg batches and stored at 4° C. for durations of the experiments (4-8 weeks), and at −20° C. for longer storage (up to six months). Water and this high fat diet were available to this group of hamsters ad libitum. The “High Fat+Fructose” group was fed the same fat-supplemented chow as the “high fat diet” group (#611201), but water was supplemented with fructose to a final concentration of 10%. Fructose was supplied from Now Foods (catalog #6931) and distributed by Lucky Vitamin (catalog #WB48432). Fructose water was prepared by adding 400 g of fructose to 4 L of water and stirring at room temperature until dissolved. Fructose water was stored at 4° C. until use. When provided to hamsters, fructose water was kept in a water bottle in the hamster cages at room temperature, exactly as standard water was. Fructose water and high fat chow were provided to this group of hamsters ad libitum. All animals remained on their respective diets for 21 days.
To begin this experiment, hamsters were randomly assigned to groups defined by the diet modifications above. After a fixed time, blood was collected from hamsters (N=3-4) to determine the lipid contents of the plasma. Because of limitations in the ability to adequately collect blood from hamsters, all blood samples were obtained via a terminal cardiac puncture preceded by asphyxiation with carbon dioxide. Blood (approximately 2 mL volume) was collected with a 22 G needle into a 5 mL syringe and transferred to a K2EDTA tube. The samples were kept on ice until centrifugation (14,000 rpm for 10 minutes at 4° C.) to separate plasma. Plasma was then aliquoted to tubes for storage at −80° C. until analysis.
Lipid parameters were determined using commercially available kits from Wako USA (Richmond, Va.) according to manufacturer's directions.
Male Golden Syrian hamsters were purchased from Charles River Labs (111-120 g, 56-61 days) and acclimated to a high fat+fructose (herein, referred to as “HF/HS”) diet as described above for two weeks. Hamsters were assigned into cohorts by body weight after two weeks' acclimation to the diet. […] Hamsters were dosed once per day for a total of 18 days. All animals remained on the above-described HF/HS diet throughout the dosing period. Dosing solutions for each cohort were prepared for 7 days at a time, although enough was prepared to last for 8 days. Each solution was stored at room temperature between administrations. Cohorts were defined according to Table 2 below.

[3] = Human clinical trial, single oral doses: serum concentration; assay type: in vivo; details: in vivo, 1500 mg, read-out: Cmax
Procedure: Five periods of single dose escalation, with 8 subjects per cohort (6 drug: 2 placebo) involve a total 40 subjects. Appropriately blinded matching placebos are provided. Cohort 1 receives 500 mg of ARI-001 formulated as a single oral tablet, plus eleven placebo tablets; Cohort 2, […] of ARI-001, plus ten placebo tablets; Cohort 3, […] of ARI-001, plus eight placebo tablets; Cohort 4, […] of ARI-001, plus four placebo tablets; Corhort 5, […] of ARI-001. Placebo-only subjects take twelve placebo tablets. Each tablet is a compressed, film-coated tablet suitable for oral administration.
Pharmacokinetic samples are collected at 0-45 min pre-dose and at 0.5, 1, 1.5, 2, 4, 6, 8, 12, 24, 30 and 168 hours after dosing. […]
[…] […] Analysis of all samples is performed at a central laboratory.

Compound | AUC [1] | Cmax [1] | Tmax [1] | half-life [1] | AUC (% Niacin) [1] | C24 h/Cmax [1] | Cmax (% Niacin) [1] | HDL/TC [2] | FFA (free fatty acids) ([2]; plasma) | HDL ([2]; plasma) | LDL ([2]; plasma) | TG (triglycerides) ([2]; plasma) | Cmax [3] | Cmax/AUC0-24 [1]
O=C(O)c1cccnc1 [Niacin, nicotinic acid] | 11700 µM·h | 4090 µM | 0.5 h | 1.75 h | 100 % Niacin | 0.02% | 100 % Niacin | 0.17 ± 0.11 | 1.82 ± 0.69 mEq/L | 79 ± 26 mg/dL | 170 ± 52 mg/dL | 1555 ± 808 mg/dL | ~30000 ng/mL | 
O=C(O)c1ccc(CCN2CCCC2)nc1 [Compound 2230C] | 686 µM·h | 126 µM | 0.31 h | 3.47 h | 5.8 % Niacin | 2.1% | 3.0 % Niacin |  |  |  |  |  |  | 0.18 h⁻¹
